# Test results as given in paper PMC5929447 (Oncotarget, 2018).
# Where two headings read alike, the source gives them in different places.
# Columns and labels:
# BCL-2 = BCL-2 (Homo sapiens, UniProt P10415); assay: Isothermal titration calorimetry (ITC), BCL-2; settings: binding to BCL-2
# Procedure: (§1) The protein was dialyzed prior to use in 2 L of 25 mM HEPES, 150 mM NaCl, 5% glycerol (v/v), 0.5% MTG (v/v) at pH 7.4 for 3 hours at room temperature. The protein was dialyzed using a 3.5 K MWCO Slide-A-Lyzer™ cassette. The protein solution was recovered, spin-filtered through a […] frit. The filtered protein was quantified by UV absorbance at 280 nm using an extinction coefficient of 36440 M^-1cm^-1. 500 ml of dialysis buffer was retained (remainder used to rinse out SCHOT bottle) and degassed for a minimum of 30 mins under vacuum with constant stirring. […] The solutions were carefully matched to ensure same solvent and buffer conditions were present in both syringe and cell (this is to minimize heat of dilution effects). The final solution was the dialysis buffer plus 1% DMSO and 0.05% P20. The experiment was performed over 13 injections with stirring at 1000 rpm, gain setting low and at 25° C. Pure water was used in the reference cell. The first injection was 0.5 μl with a duration of 1 second with a gap of 150 seconds until the further 12 injections of 3.05 μl with a duration 6.1 seconds and a 240 second interval between injections. Data was analyzed using the vendor supplied software, PEAQ-ITC Analysis Software. The data model used was the single site model. The data shown is the average of 2 or 3 independent experiments.
# [1] = test system: primary Chronic Lymphocytic Leukemia cells; assay: Apoptosis (annexin V/PI flow cytometry) in primary CLL cells; format: cell-based; settings: Homo sapiens, CLL cell, 4 h
# Procedure: (§2) Peripheral blood samples from CLL patients were obtained with informed patient consent and local ethical committee approval (UHL-09723). […] Interphase fluorescence in situ hybridization (FISH) was performed for detection of 17p13 deletion. Mantle cell lymphoma (MCL) primary cells were obtained after informed consent from MCL patients treated at the department of clinical hematology from the University Hospital of Nantes, France. Peripheral MCL cells from blood or pleural effusion, were purified after Ficoll-Hypaque separation with immuno-magnetic anti-CD19 beads (Miltenyi, Paris, France). Primary cells were cultured in RPMI-1640 supplemented with 10% FCS and 2 mM glutamine. Human platelets were isolated from citrate blood donated by healthy volunteers. Washed platelets were cultured in Hepes-buffered saline (HBS, 10 mM Hepes, 150 mM NaCl, 5 mM KCl, 1 mM MgSO4, pH 7.4). […] EC50 values were calculated using GraphPadPrism (non-linear fit, sigmoidal dose response, variable slope). […] Cell death was assessed in the CD19+ primary MCL cells by annexinV-FITC staining combined with an analysis of altered cellular morphology (lower FCS). Fluorescence was analyzed on FACSCalibur.
# RS4;11 cells = assay: Apoptosis hallmarks in RS4;11 cells (annexin V/PI flow cytometry, MSD cleaved caspase-3 and PARP); format: cell-based
# Procedure: Cells were incubated with 200 μl of binding buffer containing AnnexinV-FITC (Invitrogen) and propidium iodide (PI, Sigma) during 15 min at 20° C in the dark. THP-1 cells were incubated with 200 μl of binding buffer containing AnnexinV-APC (BD Biosciences) and DAPI (Sigma). 400 μl of binding buffer was added and samples were kept at 4° C before cytometric analysis. […] Fluorescence was collected at 520 (FITC), 630 nm (PI), 660 nm (APC) and 470 (DAPI). Numbers of apoptotic cells (addition of primary apoptosis, secondary apoptosis and necrosis) was normalized to the total numbers of cells per tubes. page 6: Cleaved PARP and cleaved caspase-3 Cleared lysates (5 μg) were assayed for immunodetection immunodetection by MesoScale Discovery of cleaved PARP and cleaved caspase-3 with MSD (MSD) assay Apoptosis Panel Whole Cell Lysate kit (MSD […]) in 96-well plates according to manufacturer 's instructions, 24 h after seeding, cells were treated with the and analyzed on the Sector Image 2400. Control DMSO indicated compounds for 4 h and harvested in lysis buffer conditions were set to 100% and fold-activation calculated. […] Cleaved caspase-3 (C) and cleaved PARP (D) was measured using MesoScale Discovery Apoptosis panel. […]
# BCL-XL [2] = molecular target: T1, BCL-XL (Homo sapiens, UniProt Q07817); assay: Fluorescence polarization (FP) with Fluorescein-PUMA, BCL-XL; format: binding; settings: Fluorescein-PUMA as binder; read-out: FP_BCL-XL_KI
# T1 sequence (Q07817 whole entry): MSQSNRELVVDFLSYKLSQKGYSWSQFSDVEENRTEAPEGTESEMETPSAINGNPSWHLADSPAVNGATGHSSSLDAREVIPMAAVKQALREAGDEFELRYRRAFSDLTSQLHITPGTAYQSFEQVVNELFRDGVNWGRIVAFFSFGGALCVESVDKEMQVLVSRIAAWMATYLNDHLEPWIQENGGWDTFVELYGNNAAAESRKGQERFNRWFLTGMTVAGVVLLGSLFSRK
# Procedure: Final concentrations of MCL-1, BFL-1, BCL-2 and BCL-XL proteins were 10, 10, 10 and 20 nM respectively. The assay plates were incubated for 2 hours at room temperature and the FP was measured on a Synergy 2 reader (Ex. 528 nm, Em. 640 nm, Cut-off 510 nm). The binding of increasing doses of compound was expressed as a percentage reduction in mP compared to the window established between ‘DMSO only’ and ‘total inhibition’ control (30 μM PUMA). […] The KI was subsequently calculated as previously described [42].
# [3] = test system: BCL-XL-dependent FL5.12 cells; assay: Apoptosis (annexin V/PI) in FL5.12 cells expressing BCL-XL upon IL-3 withdrawal; settings: 24 h upon IL-3 withdrawal
# [4] = test system: Burkitt lymphoma cell lines; assay: CellTiter-Glo viability, Burkitt lymphoma cell line panel; format: cell-based; settings: 72 h; all Burkitt lymphoma cell lines tested
# Procedure: (§3) Cells were seeded into 96-well plates and treated at 8 points with 1:2 serial dilution of compounds. Cell viability was assessed and assayed for viability using CellTiter-Glo reagent (Promega) following the manufacturer's instructions. Plates were read using Tecan luminescence plate reader. Results were normalized to the viability of cells without compounds (control wells). The IC50 values were calculated using nonlinear regression algorithms in XCell software.
# Toledo cells = assay: CellTiter-Glo viability, Toledo; format: cell-based; settings: Homo sapiens, 72 h
# Procedure: as §3
# BCL-XL/BAX complex = BCL-XL/BAX complex (Homo sapiens, UniProt Q07817); assay: Co-immunoprecipitation in BCL-XL-overexpressing HeLa cells; settings: 2 h
# Sequence of BCL-XL/BAX complex (Q07817 whole entry, one chain of several): as the sequence (Q07817 whole entry) above
# Procedure: Effecten reagent (Qiagen), with 3xFlag-tagged BCL-XL
# 24 h later, transfected Hela and RS4;11
# were put under neomycin selection (800 µg/ml, Invitrogen) were then subjected to immunoprecipitation with anti-
# [5] = test system: Mantle Cell Lymphoma cell lines; assay: CellTiter-Glo viability, MCL cell line panel; format: cell-based; settings: 72 h; two MCL cell lines out of five tested
# Procedure: as §3
# BCL-XL [6] = molecular target: T1, BCL-XL; assay: Isothermal titration calorimetry (ITC), BCL-XL; format: binding; settings: 25 °C; read-out: ITC_BCL-XL_KD
# Procedure: as §1
# [7] = test system: Diffuse Large B-Cell Lymphoma cell lines; assay: CellTiter-Glo viability, DLBCL cell line panel; format: cell-based; settings: 72 h, six out of eleven DLBCL cell lines tested
# Procedure: as §3
# [8] = test system: primary Mantle Cell Lymphoma cells; assay: Apoptosis (annexin V flow cytometry) in primary MCL cells; format: cell-based; settings: Homo sapiens, 24 h
# Procedure: as §2
# Sequence of BCL-2 (P10415 whole entry): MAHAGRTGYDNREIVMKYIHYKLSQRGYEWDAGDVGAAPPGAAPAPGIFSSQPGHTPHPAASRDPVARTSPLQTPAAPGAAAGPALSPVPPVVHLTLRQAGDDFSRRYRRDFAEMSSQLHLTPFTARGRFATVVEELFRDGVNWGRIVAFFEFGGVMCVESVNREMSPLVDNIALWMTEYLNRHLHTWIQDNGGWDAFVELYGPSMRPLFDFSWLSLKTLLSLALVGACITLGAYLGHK
smiles,measurement,setting,value
O=C(c1cc(-c2cc3c(cc2C(=O)N2Cc4ccccc4C[C@H]2CN2CCOCC2)OCO3)n2c1CCCC2)N(c1ccccc1)c1ccc(O)cc1 [S55746],"N (sites), stoichiometry",BCL-2,1.1 sites
same,∆H (enthalpy delta),BCL-2,–13.5 kcal/mol
same,EC50,"[1]; 7 patients, 4 hours of treatment, read-out: EC50 apoptosis in primary CLL cells, range over patients",4.4 to 47.2 nM
same,EC50,"[1]; read-out: EC50 S55746 primary CLL cells, patient CLL1, p17 del No, 4 h",47.2 nM
same,EC50,"[1]; read-out: EC50 S55746 primary CLL cells, patient CLL2, p17 del No, 4 h",13.8 nM
same,EC50,"[1]; read-out: EC50 S55746 primary CLL cells, patient CLL3, p17 del Yes, 4 h",13.7 nM
same,EC50,"[1]; read-out: EC50 S55746 primary CLL cells, patient CLL4, p17 del No, 4 h",12 nM
same,EC50,"[1]; read-out: EC50 S55746 primary CLL cells, patient CLL5, p17 del No, 4 h",9.9 nM
same,EC50,"[1]; read-out: EC50 S55746 primary CLL cells, patient CLL6, p17 del Yes, 4 h",7.8 nM
same,EC50,"[1]; read-out: EC50 S55746 primary CLL cells, patient CLL7, p17 del No, 4 h",4.4 nM
same,"apoptosis induction, externalization of phosphatidylserine (PS+ cells)",RS4;11 cells; 2 h,rapidly induced apoptosis in a concentration dependent-manner
same,cleavage of caspase-3 and PARP,RS4;11 cells; MSD assay,observed upon treatment by S55746 in a concentration dependent manner
same,Ki,BCL-XL [2],520 nM
same,apoptosis induction (PS+ cells) in BCL-XL-dependent FL5.12 cells,[3],minor effect
same,IC50,[4],> 10000 nM
same,IC50,Toledo cells,401 nM
same,effect on BCL-XL/BAX complex in BCL-XL-overexpressing HeLa cells,BCL-XL/BAX complex,without any significant effect on the BCL-XL/BAX complex
same,IC50,[5],< 1000 nM
same,Kd,BCL-XL [6],186 nM
same,IC50,[7],< 1000 nM
same,EC50,"[8]; 8 patients, 24 h of treatment, read-out: EC50 apoptosis in primary MCL cells, range over patients",2.5 to 110 nM
same,EC50,"[8]; read-out: EC50 S55746 primary MCL cells, patient MCL2, 24 h",15 nM
same,EC50,"[8]; read-out: EC50 S55746 primary MCL cells, patient MCL3, 24 h",12 nM
same,EC50,"[8]; read-out: EC50 S55746 primary MCL cells, patient MCL4, 24 h",12 nM
same,EC50,"[8]; read-out: EC50 S55746 primary MCL cells, patient MCL5, 24 h",5 nM
same,EC50,"[8]; read-out: EC50 S55746 primary MCL cells, patient MCL6, 24 h",4 nM
same,EC50,"[8]; read-out: EC50 S55746 primary MCL cells, patient MCL7, 24 h",3 nM
same,EC50,"[8]; read-out: EC50 S55746 primary MCL cells, patient MCL8, 24 h",2.5 nM
